{"source": "patent US10221138B2", "about": "“Biaryl derivatives as GPR120 agonists” (LG CHEM, LTD., priority 2013, dated 2019)", "data": [{"target": "T1, hGPR120 (Homo sapiens, UniProt Q5NUL3)", "T1 construct": "expressed in transfected cells; host or cells: CHO-K1", "T1 sequence (Q5NUL3 1-361)": "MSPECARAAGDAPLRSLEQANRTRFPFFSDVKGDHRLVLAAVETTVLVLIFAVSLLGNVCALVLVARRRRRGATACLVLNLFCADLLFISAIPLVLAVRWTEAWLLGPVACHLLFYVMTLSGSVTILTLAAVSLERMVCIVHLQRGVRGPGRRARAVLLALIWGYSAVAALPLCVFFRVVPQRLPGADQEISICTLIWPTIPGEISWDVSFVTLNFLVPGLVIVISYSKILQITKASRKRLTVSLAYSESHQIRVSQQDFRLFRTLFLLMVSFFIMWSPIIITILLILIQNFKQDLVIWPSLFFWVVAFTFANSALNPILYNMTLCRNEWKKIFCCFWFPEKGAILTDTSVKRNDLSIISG", "assay": "Measurement of activity of GPR120 agonist (cell-based calcium fluorescence assay)", "conditions": "CHO-K1 cells expressing Ga16 and hGPR120, Calcium 5 dye fluorescence; activity class; read-out: EC50", "method": "CHO-K1 cells expressing Ga16 and hGPR120 were dispensed into each well of a 96-well plate (3×10^4 cells/100 μl/well) and then incubated in 5% CO2, 37° C. incubator for 18 hours. Each well was treated with 100 μl of Calcium 5 dye (Molecular Devices) solution including 2% DMSO and then incubated in 5% CO2, 37° C. incubator for 1 hour. Serially diluted GPR120 agonists were prepared to a final concentration of 0.5% DMSO in a 96-well plate.\nFluorescence increased by the serially diluted GPR120 agonists is calculated as a relative percent (%) value based on the fluorescence represented by the treatment of 1% DMSO only. […] The calculation of measurement was carried out by using statistical software (Prizm).\nActivity is denoted based on the following criteria: […]", "units": {"EC50": "nM"}, "values": [{"smiles": "CC(C)=Cc1cccc(-c2cc(F)c(OCCCC(=O)O)c(F)c2)n1", "note": "[Example 65, 4-{2,6-difluoro-4-[6-(2-methyl-propenyl)-pyridin-2-yl]-phenoxy}-butyric acid]", "EC50": "< 200"}, {"smiles": "CC(C)Nc1ncccc1-c1cc(F)c(OCCCC(=O)O)c(F)c1", "note": "[Example 76, 4-[2,6-difluoro-4-[2-(isopropylamino)-3-pyridyl]phenoxy]butanoic acid]", "EC50": "200 to 2000"}, {"smiles": "CC(C)Oc1ncccc1-c1cc(F)c(OCCCCC(=O)O)c(F)c1", "note": "[Example 213, 5-[2,6-difluoro-4-(2-isopropoxy-pyridin-3-yl)-phenoxy]-pentanoic acid]", "EC50": "< 200"}, {"smiles": "O=C(O)CCCSc1c(F)cc(-c2cccnc2OCC(F)(F)F)cc1F", "note": "[Example 247, 4-{2,6-difluoro-4-[2-(2,2,2-trifluoro-ethoxy)-pyridin-3-yl]-phenylsulfanyl}-butyric acid]", "EC50": "< 200"}, {"smiles": "O=C(O)CCCOc1c(F)cc(-c2ccccc2NC2CCCC2)cc1F", "note": "[Example 79, 4-[4-[2-(cyclopentylamino)phenyl]-2,6-difluoro-phenoxy]butanoic acid]", "EC50": "< 200"}, {"smiles": "O=C(O)CCCOc1c(F)cc(-c2cccc(N3CCCCC3)n2)cc1F", "note": "[Example 15, 4-[2,6-difluoro-4-[6-(1-piperidyl)-2-pyridyl]phenoxy]butyric acid]", "EC50": "200 to 2000"}, {"smiles": "O=C(O)CCCSc1ccc(-c2cccnc2OCC2CC2)cc1", "note": "[Example 124, 4-[4-(2-cyclopropylmethoxy-pyridin-3-yl)-phenylsulfanyl]-butyric acid]", "EC50": "200 to 2000"}, {"smiles": "CC(C)Oc1cccc(-c2cc(F)c(OCCCCC(=O)O)c(F)c2)n1", "note": "[Example 238, 5-[2,6-difluoro-4-(6-isopropoxy-2-pyridyl)phenoxy]pentanoic acid]", "EC50": "< 200"}, {"smiles": "O=C(O)CCCSc1ccc(-c2cccnc2N2CCCC2)cc1F", "note": "[Example 173, 4-[2-fluoro-4-(2-pyrrolidin-1-yl-pyridin-3-yl)-phenylsulfanyl]-butyric acid]", "EC50": "200 to 2000"}, {"smiles": "O=C(O)CCCOc1ccc(-c2cccc(Oc3ccccc3)n2)cc1", "note": "[Example 1, 4-[4-(6-phenoxy-2-pyridyl)phenoxy]butyric acid]", "EC50": "200 to 2000"}, {"smiles": "O=C(O)CCCSc1ccc(-c2cccnc2OC2CCOC2)cc1F", "note": "(stereo not drawn) [Example 245, 4-{2-fluoro-4-[2-(tetrahydrofuran-3-yloxy)-pyridin-3-yl]-phenylsulfanyl}-butyric acid]", "EC50": "200 to 2000"}, {"smiles": "O=C(O)CCCOc1c(F)cc(-c2cccc(NC3CCCC3)c2)cc1F", "note": "[Example 80, 4-[4-[3-(cyclopentylamino)phenyl]-2,6-difluoro-phenoxy]butanoic acid]", "EC50": "< 200"}, {"smiles": "O=C(O)CCCOc1c(F)cc(-c2cccnc2CC2CCCC2)cc1F", "note": "[Example 108, 4-[4-[2-(cyclopentylmethyl)-3-pyridyl]-2,6-difluoro-phenoxy]butanoic acid]", "EC50": "< 200"}, {"smiles": "CCCSc1ncccc1-c1cc(F)c(OCCCC(=O)O)c(F)c1", "note": "[Example 204, 4-[2,6-difluoro-4-(2-propylsulfanyl-pyridin-3-yl)-phenoxy]-butanoic acid]", "EC50": "< 200"}, {"smiles": "O=C(O)CCCOc1cc(F)c(-c2cccnc2SC2CCC2)cc1F", "note": "[Example 61, 4-[4-(2-cyclobutylsulfanyl-pyridin-3-yl)-2,5-difluoro-phenoxy]-butyric acid]", "EC50": "200 to 2000"}, {"smiles": "CC(C)Sc1ncccc1-c1cc(F)c(OCCCC(=O)O)c(F)c1", "note": "[Example 41, 4-[2,6-difluoro-4-(2-isopropylsulfanyl-pyridin-3-yl)-phenoxy]-butyric acid]", "EC50": "200 to 2000"}, {"smiles": "O=C(O)CCCCCOc1c(F)cc(-c2cccnc2OC2CCCC2)cc1F", "note": "[Example 262, 6-[4-(2-cyclopentyloxy-pyridin-3-yl)-2,6-difluoro-phenoxy]-hexanoic acid]", "EC50": "< 200"}, {"smiles": "CC(C)Oc1ncccc1-c1cc(F)c(SCCCC(=O)O)c(F)c1", "note": "[Example 138, 4-[2,6-difluoro-4-(2-isopropoxy-pyridin-3-yl)-phenylsulfanyl]-butyric acid]", "EC50": "< 200"}, {"smiles": "CC(C)Sc1cc(-c2cc(F)c(OCCCC(=O)O)c(F)c2)ccn1", "note": "[Example 8, 4-[2,6-difluoro-4-(2-isopropylsulfanyl-4-pyridyl)phenoxy]butyric acid]", "EC50": "> 20000"}, {"smiles": "O=C(O)CCCOc1cc(F)c(-c2cccc(SC3CCC3)n2)cc1F", "note": "[Example 62, 4-[4-(6-cyclobutylsulfanyl-pyridin-2-yl)-2,5-difluoro-phenoxy]-butyric acid]", "EC50": "200 to 2000"}, {"smiles": "CCCSc1ncccc1-c1cc(F)c(OCCCCC(=O)O)c(F)c1", "note": "[Example 236, 5-[2,6-difluoro-4-(2-propylsulfanyl-3-pyridyl)phenoxy]pentanoic acid]", "EC50": "< 200"}, {"smiles": "O=C(O)CCCSc1ccc(-c2ccccc2NC2CCCC2)cc1F", "note": "[Example 160, 4-(2′-cyclopentylamino-3-fluoro-biphenyl-4-ylsulfanyl)-butyric acid]", "EC50": "< 200"}, {"smiles": "O=C(O)CCCOc1c(F)cc(-c2ccccc2OC2CCC2)cc1F", "note": "[Example 53, 4-(2′-cyclobutoxy-3,5-difluoro-biphenyl-4-yloxy)-butyric acid]", "EC50": "< 200"}, {"smiles": "O=C(O)CCCOc1ccc(-c2ccccc2OCC2CC2)cc1", "note": "[Example 58, 4-(2′-cyclopropylmethoxy-biphenyl-4-yloxy)-butyric acid]", "EC50": "200 to 2000"}, {"smiles": "CC(C)Oc1ncccc1-c1ccc(SC(C)CCC(=O)O)cc1", "note": "(stereo not drawn) [Example 200, 4-[4-(2-isopropoxy-pyridin-3-yl)-phenylsulfanyl]-pentanoic acid]", "EC50": "200 to 2000"}, {"smiles": "O=C(O)CCCOc1c(F)cc(-c2cccc(OC3CCC3)n2)cc1F", "note": "[Example 25, 4-[4-[6-(cyclobutoxy)-2-pyridyl]-2,6-difluoro-phenoxy]butyric acid]", "EC50": "< 200"}, {"smiles": "O=C(O)CCCSc1ccc(-c2cccnc2SC2CCCC2)cc1", "note": "[Example 149, 4-[4-(2-cyclopentylsulfanyl-pyridin-3-yl)-phenylsulfanyl]-butyric acid]", "EC50": "< 200"}, {"smiles": "O=C(O)CCCOc1c(F)cc(-c2cccnc2OCC2CC2)cc1F", "note": "[Example 46, 4-[4-(2-cyclopropylmethoxy-pyridin-3-yl)-2,6-difluoro-phenoxy]-butyric acid]", "EC50": "200 to 2000"}, {"smiles": "O=C(O)CCCCCSc1c(F)cc(-c2cccnc2OC2CCCC2)cc1F", "note": "[Example 276, 6-[4-(2-cyclopentyloxy-pyridin-3-yl)-2,6-difluoro-phenylsulfanyl]-hexanoic acid]", "EC50": "200 to 2000"}, {"smiles": "O=C(O)CCCSc1ccc(-c2cccnc2SC2CCC2)cc1F", "note": "[Example 152, 4-[4-(2-cyclobutylsulfanyl-pyridin-3-yl)-2-fluoro-phenylsulfanyl]-butyric acid]", "EC50": "< 200"}, {"smiles": "O=C(O)CCCSc1ccc(-c2cccnc2OC2CCC2)cc1F", "note": "[Example 172, 4-[4-(2-cyclobutoxy-pyridin-3-yl)-2-fluoro-phenylsulfanyl]-butyric acid]", "EC50": "< 200"}, {"smiles": "CC(C)Sc1ncccc1-c1cc(F)c(SCCCC(=O)O)c(F)c1", "note": "[Example 146, 4-[2,6-difluoro-4-(2-isopropylsulfanyl-pyridin-3-yl)-phenylsulfanyl]-butyric acid]", "EC50": "< 200"}, {"smiles": "O=C(O)CCCCOc1c(F)cc(-c2cccnc2SC2CCC2)cc1F", "note": "[Example 233, 5-[4-(2-cyclobutylsulfanyl-3-pyridyl)-2,6-difluoro-phenoxy]pentanoic acid]", "EC50": "< 200"}, {"smiles": "O=C(O)CCCSc1ccc(-c2cc(F)ccc2NC2CCCC2)cc1", "note": "[Example 176, 4-(2′-cyclopentylamino-5′-fluoro-biphenyl-4-ylsulfanyl)-butyric acid]", "EC50": "< 200"}, {"smiles": "CC(C)Oc1ncccc1-c1cc(F)c(SCCCCC(=O)O)c(F)c1", "note": "[Example 253, 5-[2,6-difluoro-4-(2-isopropoxy-pyridin-3-yl)-phenylsulfanyl]-pentanoic acid]", "EC50": "200 to 2000"}, {"smiles": "CCCOc1cccc(-c2cc(F)c(SCCCC(=O)O)c(F)c2)n1", "note": "[Example 136, 4-[2,6-difluoro-4-(6-propoxy-pyridin-2-yl)-phenylsulfanyl]-butyric acid]", "EC50": "< 200"}, {"smiles": "O=C(O)CCCOc1c(F)cc(-c2cccnc2NCC2CC2)cc1F", "note": "[Example 74, 4-[4-[2-(cyclopropylmethylamino)-3-pyridyl]-2,6-difluoro-phenoxy]butanoic acid]", "EC50": "200 to 2000"}, {"smiles": "COc1ccc(-c2cc(F)c(SCCCC(=O)O)c(F)c2)c(OC2CCCC2)c1", "note": "[Example 184, 4-(2′-cyclopentyloxy-3,5-difluoro-4′-methoxy-biphenyl-4-ylsulfanyl)-butyric acid]", "EC50": "200 to 2000"}, {"smiles": "Cc1cc(F)c(OC2CCCC2)c(-c2ccc(SCCCC(=O)O)c(F)c2)c1", "note": "[Example 195, 4-(2′-cyclopentyloxy-3,3′-difluoro-5′-methyl-biphenyl-4-ylsulfanyl)-butyric acid]", "EC50": "200 to 2000"}, {"smiles": "O=C(O)C1CC1COc1c(F)cc(-c2cccnc2SC2CCC2)cc1F", "note": "(stereo not drawn) [Example 60, 2-[4-(2-cyclobutylsulfanyl-pyridin-3-yl)-2,6-difluoro-phenoxymethyl]-cyclopropanecarboxylic acid]", "EC50": "< 200"}, {"smiles": "O=C(O)CCCOc1c(F)cc(-c2cccnc2OCCF)cc1F", "note": "[Example 32, 4-{2,6-difluoro-4-[2-(2-fluoro-ethoxy)-pyridin-3-yl]-phenoxy}-butyric acid]", "EC50": "> 20000"}, {"smiles": "O=C(O)CCCOc1ccc(-c2ccccc2OC2CCCC2)cc1", "note": "[Example 56, 4-(2′-cyclopentyloxy-biphenyl-4-yloxy)-butyric acid]", "EC50": "200 to 2000"}]}]}
